Common to all, as to format: cell-based
The subject of series [1] is mock-infected MT-4 cells. Briefly: Test A: cytotoxicity in mock-infected MT-4 cells (MTT). The procedure:
(§1) A rapid, sensitive and automated assay procedure was used for the in vitro evaluation of anti-HIV agents. An […] T4-cell line, MT-4, which was previously shown (Koyanagi et al., Int. J. Cancer, 36, 445-451, 1985) to be highly susceptible to and permissive for HIV infection, served as the target cell line. Inhibition of the HIV-induced cytopathic effect was used as the end point. The viability of both HIV- and mock-infected cells was assessed spectrophotometrically via the in situ reduction of 3-(4,5-dimethylthiazol-2-yl)-2,5-diphenyltetrazolium bromide (MTT). […] The percent protection achieved by the compound in HTV-infected cells was calculated by the following formula:
(§2) [formula] whereby (ODT)HIV is the optical density measured with a given concentration of the test compound in HIV-infected cells; (ODC)HIV is the optical density measured for the control unteated HIV-infected cells; (ODC)MOCK is the optical density measured for the control untreated mock-infected cells; all optical density values were determined at 540 nm. […] The ratio of CC50 to IC50 was defined as the selectivity index (SI).

Series [2] deals with HIV. Briefly: Test A: inhibition of the HIV-induced cytopathic effect in MT-4 cells (MTT). Particulars: Test A; MT-4 cells, MTT; pIC50 = −log IC50, dose achieving 50% protection. The procedure: as §1, §2
(In general: Protection from cytopathic effect is a common read-out in antiviral testing.)

For series [3], the system named is mock-infected MT-4 cells. Briefly: Test B: cytotoxicity in mock-infected MT-4 cells engineered with GFP under a constitutional promoter. Here is the method: An […] T4-cell line, MT-4, which was previously shown (Koyanagi et al., Int. J. Cancer, 36, 445-451, 1985) to be highly susceptible to and permissive for HIV infection, served as the target cell line. In these cells, engineered with GFP (and an HIV-specific promotor), ongoing HIV-infection was measured fluorometrically. Cytotoxicity is measured in the same cells, but engineered with GFP under a constitutional promoter. The infection (or inhibition thereof) of HIV infected cells and the flourescence of mock-infected cells is assessed by the fluorescent GFP signal generated by the two above mentioned cell lines.

The mark [4] stands for this setting: Test A, mock-infected MT-4 cells, MTT, 50% cytotoxic concentration (CC50 in M).

This is an account of results in patent US7585861B2, “HIV inhibiting 1,2,4-triazines” (Janssen Pharmaceutica, N.V., priority 2003, dated 2009).

Take `Cc1cc(/C=C/C#N)cc(C)c1Nc1cnnc(Nc2ccc(C#N)cc2)n1` [Compound 8]: the PCC50 in series [1] is given as <4.0. Besides, in series [2], the “pIC50 (M)” value is reported as 7.3 M. `COc1cc(/C=C/C#N)cc(Cl)c1Nc1nc(Nc2ccc(C#N)cc2)nnc1C` [Compound 70] had a PCC50 in series [3] of 6.2. `COc1cc(CCC#N)cc(OC)c1Nc1nc(Nc2ccc(C#N)cc2)nnc1C` [Compound 40] yielded a PCC50 in series [1] of 5.0. Besides, the “pIC50 (M)” value in series [2] is 8.6 M. `Cc1cc(C)c(Nc2nc(Nc3ccc(C#N)cc3)nnc2C)c(CC#N)c1` [Compound 27]: in series [1], the PCC50 is listed as <4.0. In addition, in series [2], the “pIC50 (M)” value is recorded as 8.3 M. The corresponding values for `Cc1cc(C#N)cc(C)c1Nc1nc(Nc2ccc(C#N)cc2)nnc1C` [Compound 5] are <4.0 and 8.7 M.

The compound `COc1cc(/C=C/C#N)cc(C)c1Nc1nc(Nc2ccc(C#N)cc2)nnc1C` [Compound 60] returned a PCC50 in series [3] of 6.0. On to `Cc1cc(C(C)(C)C)cc(C)c1Nc1nc(Nc2ccc(C#N)cc2)nnc1C` [Compound 18], for which the PCC50 in series [1] is on record as <4.0. The “pIC50 (M)” value in series [2] was 8.1 M. In the case of `Cc1cc(/C=C/C#N)cc(C)c1Nc1nc(Nc2ccc(C#N)cc2)nnc1C` [Compound 13], in series [1], the PCC50 is recorded as <4.0. Also, the “pIC50 (M)” value in series [2] is listed as 8.2 M. Turning to `Cc1cc(C(=O)N(C)C)cc(C)c1Nc1nc(Nc2ccc(C#N)cc2)nnc1C` [Compound 31], the PCC50 in series [1] is reported as <4.0. In addition, the “pIC50 (M)” value in series [2] is listed as 7.5 M. The compound `N#Cc1ccc(Nc2cnnc(Nc3c(F)cc(I)cc3F)n2)cc1` [Compound 63] registered a PCC50 in series [3] of 4.9. The same measure, in the same setting: to `COc1cc(C(C)=CC#N)cc(C)c1Nc1nc(Nc2ccc(C#N)cc2)nnc1C` [Compound 66] belongs 5.7.

With `CNC(=O)c1cc(C)c(Nc2cnnc(Nc3ccc(C#N)cc3)n2)c(C)c1` [Compound 37], the PCC50 in series [1] stood at 4.3. Moreover, the “pIC50 (M)” value in series [2] was 7.0 M. Turning to `Cc1cc(/C=C/C#N)cc(C)c1Nc1nc(Nc2ccc(C#N)cc2)nnc1Cl` [Compound 54], in series [3], the PCC50 is 4.9. On to `Cc1cc(/C=C/C(=O)N2CCOCC2)cc(C)c1Oc1nc(Nc2ccc(C#N)cc2)nnc1C` [Compound 47], for which, in series [1], the PCC50 is recorded as <4.6. Besides, in series [2], the “pIC50 (M)” value is listed as 8.1 M.

`CCOc1cc(C)c(Nc2cnnc(Nc3ccc(C#N)cc3)n2)c(C)c1` [Compound 43]: the PCC50 in series [1] was <4.6. Besides, in series [2], the “pIC50 (M)” value was determined as 8.1 M. For `Cc1cc(C(C)(C)C)cc(C)c1Nc1cnnc(Nc2ccc(C#N)cc2)n1` [Compound 17], the PCC50 in series [1] is given as <4.0. Further, the “pIC50 (M)” value in series [2] was 8.0 M. The corresponding values for `Cc1cc(Br)cc(C)c1Nc1nc(Nc2ccc(C#N)cc2)nnc1C` [Compound 16] are 4.2 and 8.7 M. For the compound `N#C/C=C/c1cc(Cl)c(Nc2nnc(Cl)c(Nc3ccc(C#N)cc3)n2)c(Cl)c1` [Compound 76], the PCC50 in series [3] is reported as <4.6. `COc1cc(/C(C)=C/C#N)cc(OC)c1Nc1nc(Nc2ccc(C#N)cc2)nnc1C` [Compound 67] returned a PCC50 in series [3] of 4.9. Regarding `Cc1cc(/C=C/C(=O)N2CCCC2)cc(C)c1Nc1nc(Nc2ccc(C#N)cc2)nnc1C` [Compound 39], the PCC50 in series [1] is recorded as <4.0. For the same compound, the “pIC50 (M)” value in series [2] amounted to 7.2 M. Compound `Cc1cc(/C=C/C#N)cc(Cl)c1Nc1nc(Nc2ccc(C#N)cc2)nnc1C` [Compound 65] registered a PCC50 in series [3] of 5.3.

Turning to `Cc1cc(C)c(Sc2nc(Nc3ccc(C#N)cc3)nnc2Cl)c(C)c1` [Compound 46], the PCC50 in series [1] (setting [4]) was <4.6. Further, in series [2], the “pIC50 (M)” value amounted to 7.9 M. The compound `CCNC(=O)c1cc(C)c(Nc2cnnc(Nc3ccc(C#N)cc3)n2)c(C)c1` [Compound 51] showed a PCC50 in series [3] of 5.1.

As to `COc1cc(OC)c(Nc2nc(Nc3ccc(C#N)cc3)nnc2C)c(OC)c1` [Compound 25], the PCC50 in series [1] worked out at 4.4. In series [2], the “pIC50 (M)” value amounted to 8.6 M. Consider `COc1cc(C=C(C)C#N)cc(C)c1Nc1nc(Nc2ccc(C#N)cc2)nnc1C` [Compound 71], for which the PCC50 in series [3] is 5.1. As for `COc1cc(C)cc(C)c1Nc1nc(Nc2ccc(C#N)cc2)nnc1C` [Compound 23], in series [1], the PCC50 stood at 6.4. The “pIC50 (M)” value in series [2] is listed as 8.9 M.

On to `COc1cc(C)c(Nc2nc(Nc3ccc(C#N)cc3)nnc2C)c(C)c1` [Compound 11], for which the PCC50 in series [1] stood at 5.5. In series [2], the “pIC50 (M)” value stood at 9.2 M.

`CC(C#N)=Cc1cc(C)c(Nc2nc(Nc3ccc(C#N)cc3)nnc2C)c(C)c1` [Compound 42]: the PCC50 in series [1] is on record as 4.8. In series [2], the “pIC50 (M)” value amounted to 9.1 M. The corresponding values for `Cc1cc(OCC#N)cc(C)c1Nc1cnnc(Nc2ccc(C#N)cc2)n1` [Compound 41] are <4.6 and 7.6 M.

For `N#CC=Cc1cc(Br)c(Nc2nnc(Cl)c(Nc3ccc(C#N)cc3)n2)c(Br)c1` (mixture of isomers) [Compound 78], the PCC50 in series [3] amounted to 5.1. As for `CCOc1cc(C)c(Nc2nc(Nc3ccc(C#N)cc3)nnc2C)c(C)c1` [Compound 35], the PCC50 in series [1] was <4.6. In series [2], the “pIC50 (M)” value was 8.2 M. For `Cc1cc(CC#N)cc(C)c1Nc1nc(Nc2ccc(C#N)cc2)nnc1C` [Compound 20] the same measures were <4.6 and 8.6 M. The corresponding values for `Cc1cc(/C=C/C(=O)N(C)C)cc(C)c1Nc1nc(Nc2ccc(C#N)cc2)nnc1C` [Compound 22] are <4.6 and 7.1 M. On to `Cc1cc(C(=O)N(C)C)cc(C)c1Nc1cnnc(Nc2ccc(C#N)cc2)n1` [Compound 52], for which the PCC50 in series [3] is given as <4.6. Take `Cc1cc(CCC#N)cc(C)c1Nc1cnnc(Nc2ccc(C#N)cc2)n1` [Compound 9]: in series [1], the PCC50 is on record as <4.0. Moreover, the “pIC50 (M)” value in series [2] was determined as 7.8 M. Take `COc1cc(/C(C)=C/C#N)cc(Cl)c1Nc1nc(Nc2ccc(C#N)cc2)nnc1C` [Compound 68]: the PCC50 in series [3] was determined as 5.2. For `Cc1cc(C=CC#N)cc(C)c1Nc1nnc(Cl)c(Nc2ccc(C#N)cc2)n1` [Compound 53], the PCC50 in series [3] is 4.9. For the compound `Cc1cc(C)c(Nc2nc(Nc3ccc(C#N)cc3)nnc2C)c(C)c1` [Compound 12], the “pIC50 (M)” value in series [2] is recorded as 8.9 M. The compound `COc1cc(C)c(Nc2nnc(Cl)c(Nc3ccc(C#N)cc3)n2)c(C)c1` [Compound 64] yielded a PCC50 in series [3] of 4.7. Compound `COc1cc(/C=C/C#N)cc(OC)c1Nc1nc(Nc2ccc(C#N)cc2)nnc1C` [Compound 33] yielded a PCC50 in series [1] of 5.4. For the same compound, the “pIC50 (M)” value in series [2] is 8.6 M. For `COc1cc(C)c(Nc2cnnc(Nc3ccc(C#N)cc3)n2)c(C)c1` [Compound 14] the same measures were <4.0 and 8.8 M.

Turning to `Cc1cc(/C=C\C#N)cc(C)c1Nc1nc(Nc2ccc(C#N)cc2)nnc1C` [Compound 19], the PCC50 in series [1] worked out at 4.6. In addition, the “pIC50 (M)” value in series [2] came to 9.0 M. `Cc1cc(Br)cc(C)c1Nc1cnnc(Nc2ccc(C#N)cc2)n1` [Compound 15]: the PCC50 in series [1] is on record as <4.0. In addition, the “pIC50 (M)” value in series [2] is on record as 8.8 M.

`CNC(=O)/C=C/c1cc(C)c(Oc2nc(Nc3ccc(C#N)cc3)nnc2C)c(C)c1` [Compound 56] came in with a PCC50 in series [3] of 4.8. The same measure, in the same setting: next, `C/C(=C\C#N)c1cc(C)c(Nc2nc(Nc3ccc(C#N)cc3)nnc2C)c(Cl)c1` [Compound 69]: 5.7.

For the compound `Cc1cc(OCC#N)cc(C)c1Nc1nc(Nc2ccc(C#N)cc2)nnc1C` [Compound 38], the PCC50 in series [1] is given as 4.7. For the same compound, the “pIC50 (M)” value in series [2] worked out at 8.9 M.

Consider `Cc1cc(C)c(Nc2nnc(Cl)c(Nc3ccc(C#N)cc3)n2)c(C)c1` [Compound 45], for which the PCC50 in series [1] is <4.6. For the same compound, the “pIC50 (M)” value in series [2] turned out to be 7.6 M. Regarding `N#C/C=C/c1cc(Cl)c(Nc2nnc(Cl)c(Nc3ccc(C#N)cc3)n2)c(Br)c1` [Compound 77], the PCC50 in series [3] came to 5.0. Consider `CCN(C)C(=O)/C=C/c1cc(C)c(Oc2nc(Nc3ccc(C#N)cc3)nnc2C)c(C)c1` [Compound 57], for which the PCC50 in series [3] worked out at 4.7. On the same count and under the same terms, next, `Cc1cc(/C=C/C(=O)N(C)C)cc(C)c1Oc1nc(Nc2ccc(C#N)cc2)nnc1C` [Compound 50]: 4.7. As to `Cc1cc(CCC#N)cc(C)c1Nc1nc(Nc2ccc(C#N)cc2)nnc1C` [Compound 2], the PCC50 in series [1] is listed as <4.0. Further, in series [2], the “pIC50 (M)” value was determined as 9.0 M. As to `N#Cc1ccc(Nc2nncc(Nc3c(Cl)cc(C#N)cc3Cl)n2)cc1` [Compound 10], the PCC50 in series [1] (setting [4]) was <4.5. In series [2], the “pIC50 (M)” value turned out to be 7.6 M. Take `Cc1nnc(Nc2ccc(C#N)cc2)nc1Nc1c(Cl)cc(/C=C/C#N)cc1Cl` [Compound 34]: the PCC50 in series [1] was determined as 5.0. The “pIC50 (M)” value in series [2] stood at 8.6 M. Take `Cc1cc(C)c(Nc2cnnc(Nc3ccc(C#N)cc3)n2)c(C)c1` [Compound 7]: the PCC50 in series [1] (setting [4]) is 5.5. For the same compound, the “pIC50 (M)” value in series [2] is recorded as 9.3 M. Consider `Cc1cc(CC#N)cc(C)c1Nc1cnnc(Nc2ccc(C#N)cc2)n1` [Compound 24], for which the PCC50 in series [1] is reported as <4.6. For the same compound, the “pIC50 (M)” value in series [2] worked out at 8.8 M.
